# Assay results published in patent US20250066864A1, “METHODS FOR IDENTIFYING ADAR1 INHIBITORS, AND COMPOSITIONS AND METHODS OF USE IN TREATING CANCER” (The Wistar Institute of Anatomy and Biology, priority 2021, published 2025).
# Entries after “also recorded” stand apart in the source; their conditions may differ.
# Key:
# [1] = system: IMR90 normal fibroblast cells; experiment: Apo Tox-Glo viability assay, IMR90 normal fibroblast cells; assay type: cell-based; conditions: 5 μM, 3 days
# Protocol: (§1) HeLa, U2OS, and MRI90 cells were cultured in the presence of ADAR1 inhibitors, 5 μM or 20 μM, for 3 days. Their viability was examined using the Apo Tox-Glo assay system (Promega), which measures plasma membrane penetration of glycyl-phenyl-alanyl-aminofluorocoumarin peptide. Control, 0.3% DMSO. […] Data are mean±S.D. (n=3, biological replicates).
# (§2) FIGS. 29A-29D Characterization of Compound #13 effects in cancer cells. […] Viability was examined using the Apo Tox-Glo assay system (Promega). Control, 0.3% DMSO. (FIG. 29B) Western blotting analysis of HeLa cells treated with Compound #13 (10 μM). […] (FIG. 29D) Activation of the IFN signaling pathway. HSC-4 squamous carcinoma cells were treated with Compound #13 at 10 μM (12 hrs). RNA samples were analyzed by qRT-PCR to monitor expression levels of ISGs.
# [2] = biological target: T1, ADAR1p150 (Homo sapiens, UniProt P55265); experiment: in vitro editing assay, ADAR1p150; assay type: biochemical; conditions: dsRNAs (matched, mismatched) and DNA:RNA hybrids; not shown
# T1 construct: a full-length interferon-inducible p150 and a shorter N-terminus truncated p110
# T1 sequence (P55265 1-1226): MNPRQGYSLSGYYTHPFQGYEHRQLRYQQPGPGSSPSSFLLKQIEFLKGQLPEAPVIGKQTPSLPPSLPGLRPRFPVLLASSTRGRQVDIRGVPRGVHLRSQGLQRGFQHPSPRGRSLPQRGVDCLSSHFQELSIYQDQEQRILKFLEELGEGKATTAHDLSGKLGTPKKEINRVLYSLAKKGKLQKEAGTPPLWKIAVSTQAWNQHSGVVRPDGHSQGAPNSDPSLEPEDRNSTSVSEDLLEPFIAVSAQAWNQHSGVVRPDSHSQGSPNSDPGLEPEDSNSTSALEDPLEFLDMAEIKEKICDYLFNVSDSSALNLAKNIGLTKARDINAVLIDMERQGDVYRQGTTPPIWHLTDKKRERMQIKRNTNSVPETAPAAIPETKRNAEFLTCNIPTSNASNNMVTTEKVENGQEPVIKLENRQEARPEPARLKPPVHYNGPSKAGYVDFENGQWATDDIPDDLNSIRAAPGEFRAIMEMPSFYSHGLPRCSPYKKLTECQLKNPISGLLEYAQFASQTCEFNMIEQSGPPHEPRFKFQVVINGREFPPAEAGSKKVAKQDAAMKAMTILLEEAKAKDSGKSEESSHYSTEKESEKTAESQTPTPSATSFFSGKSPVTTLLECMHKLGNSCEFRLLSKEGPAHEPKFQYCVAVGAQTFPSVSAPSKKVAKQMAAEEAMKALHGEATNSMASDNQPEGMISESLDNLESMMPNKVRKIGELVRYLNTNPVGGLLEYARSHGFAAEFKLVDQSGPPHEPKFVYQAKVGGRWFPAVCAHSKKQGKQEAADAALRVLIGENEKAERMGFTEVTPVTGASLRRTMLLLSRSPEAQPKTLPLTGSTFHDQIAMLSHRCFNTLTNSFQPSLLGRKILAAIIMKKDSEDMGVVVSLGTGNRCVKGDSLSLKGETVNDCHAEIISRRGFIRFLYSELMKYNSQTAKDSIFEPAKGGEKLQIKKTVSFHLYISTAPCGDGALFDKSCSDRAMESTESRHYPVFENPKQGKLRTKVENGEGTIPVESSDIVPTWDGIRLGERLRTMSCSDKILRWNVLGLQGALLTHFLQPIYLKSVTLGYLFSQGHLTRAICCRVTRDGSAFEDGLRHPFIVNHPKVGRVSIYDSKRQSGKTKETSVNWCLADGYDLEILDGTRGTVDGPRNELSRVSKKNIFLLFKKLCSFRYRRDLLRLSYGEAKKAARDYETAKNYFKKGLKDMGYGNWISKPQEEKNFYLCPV
# Protocol: We conducted in vitro editing assay at varying concentrations of Compound #13 with dsRNAs (matched, mismatched) and DNA:RNA hybrids, resulting in determination of IC50 values for ADAR1p110 and ADAR1p150 (not shown) in 7-40 μM ranges: examples of such experiments done for dsRNA are shown (FIG. 8). […] In vivo ADAR1 inhibitory effects in HeLa cells were examined by cDNA sequencing of RT-PCR products of known ADAR1 target RNAs. One example of analysis of such ADAR1 target sites located within the 3′UTR Alu dsRNA of TMPO mRNAs is shown (FIGS. 28A and 28B). This particular ADAR1 target site is highly edited in HeLa cells, more than 80%. Compound #13 inhibited this ADAR1 target site editing down to 0% (FIGS. 28A and 28B).
# [3] = system: HeLa cells; experiment: Apo Tox-Glo viability assay, HeLa cells; assay type: cell-based, human
# Protocol: as §1, §2
# [4] = system: U2OS cells; experiment: Apo Tox-Glo viability assay, U2OS cells; assay type: cell-based, human; conditions: 5 μM, 3 days
# Protocol: as §1, §2
# [5] = system: HeLa cells; experiment: Western blotting analysis of treated HeLa cells (DNA damage, M phase arrest, apoptosis); assay type: cell-based, human; conditions: 10 μM
# Protocol: as §2
# Cell lysates were prepared in Laemmli buffer containing benzonase nuclease (Sigma), complete EDTA-free proteinase inhibitor cocktail (Roche), and PhosStop phosphatase inhibitor cocktail (Roche) and size-fractionated by 4-20% sodium dodecyl sulfate-polyacrylamide gel electrophoresis. Proteins were blotted to Immobilon-P […] membrane (Millipore). Membranes were blocked with 10% Blocker BSA (bovine serum albumin) buffer (Thermo Fisher Scientific) and incubated with the primary antibodies overnight at 4° C. After incubation with each appropriate secondary antibody, bands were detected with ECL (GE Healthcare) using X-ray films. Antibodies were diluted in 10% Blocker BSA buffer (Thermo Fisher Scientific).
# [6] = water solubility by LC-MS/MS; assay type: physicochemical; conditions: water with 1% DMSO, kinetic from dmso stock, tested at 100 μM in 1% DMSO
smiles,measurement,setting,value
"N#Cc1ccc(NC(=O)c2sc3ccccc3c2Cl)cc1 [Compound #13, 3-chloro-N-(4-cyanophenyl)-1-benzothiophene-2-carboxamide]",viability of MRI90 (normal fibroblast) cells,[1],very little effects
same,IC50,[2],7 to 40 µM
same,viability of HeLa (non-ALT) cells,"[3]; 5 μM, 3 days",significantly decreased viability; also recorded: significantly reduced viability
same,viability of HeLa non-ALT cancer cells,"[3]; 10 μM, FIG. 29A",killed selectively; also recorded: selectively reduced viability
same,viability of U2OS (ALT) cells,[4],very little effects
same,"DNA damage, M phase arrest and apoptosis markers by Western blotting",[5],"induced DNA damage, M phase arrest, and apoptosis; also recorded: upregulated γ-H2AX, Histone 3 phosphorylated at Serine 10, and cleaved PARP bands"
same,solubility,[6],0.59 µM
